Test results as given in patent publication US20240189279A1, “IMMUNOMODULATORY COMPOSITIONS AND METHODS OF USE THEREOF” (THE TEXAS A&M UNIVERSITY SYSTEM, priority 2022, published 2024).
“Also recorded” adds a separate entry of the source.

How the values were obtained:
[1] = system: fatty acid metabolism enzymes in liver; experiment: Liver targeted proteomics of fatty acid metabolism and antioxidant enzymes in WD mice; format: in vivo, mice (male B6 129SF1/J)
Description: Animal experiments. Male B6 129SF1/J mice at 6 weeks of age were obtained from Jackson Laboratories (Bar Harbor, ME). Mice were acclimatized to the animal facility for one week. At the start of the experiment, mice were randomly divided into four groups (n=10 for each group). Three of the four groups were fed ad libitum a Western diet (WD) with 40% Kcal from fat and containing 0.15% cholesterol (D12079B, Research Diets) and a sugar water (SW) solution (23.1 g/L d-fructose+18.9 g/L d-glucose) as previously described (DIAMOND model (15)). After 8 weeks, the three groups of WD-fed mice were randomly selected for treatment with vehicle (WD group) or low (WD-50 group) or high dose (WD-100 group) of […]. The WD group was fed WD and drank sugar water. The WD-50 and WD-100 groups were fed WD and drank sugar water containing, respectively, 50 or 100 mg […] per kg body weight. The treatments were continued for another 8 weeks. Water bottles containing SW and […] or only SW were changed every other day. A fourth group of mice was fed a low-fat control diet (D12450B, Research Diets) and normal water for 16 weeks (CN group) (FIG. 9A). FIG. 9A presents the study design. Mice belonging to the same treatment group were housed together (5 mice/cage). Mice were maintained on 12:12-h light-dark cycles. All procedures were performed in accordance with Texas A&M University Health Sciences Center Institutional Animal Care and Use Committee guidelines under an approved animal use protocol (AUP #2017-0145). Targeted proteomics. A panel of 15 proteins having differential abundance in the untargeted proteomics data were selected for targeted measurements using product ion scans for representative peptides (Table 7). The relative abundance of a target protein was determined by quantifying the corresponding peptide peak's AUCs in MultiQuant and normalizing the value by the sample protein weight.

[2] = system: palmitate and LPS stimulated macrophages; experiment: Cytokine production in palmitate and LPS stimulated macrophages; format: cell-based
[3] = system: liver proteome; experiment: Liver untargeted proteomics in WD mice; format: in vivo, mice (male B6 129SF1/J)

## O=C([O-])Cc1c[nH]c2ccccc12.[Na+] [I3A, Indole-3-acetate sodium salt]
[1]; I3A treated vs WD
  decrease of Fasn in liver: 86%
[1]; I3A treatment, WD-50 and WD-100
  abundance of antioxidant enzymes catalase (CatB) and glutathione peroxidase 1 (Gpx1) in liver: dose-dependent decrease
[1]; WD-100 group vs WD
  abundance of acetyl-CoA carboxylase-2 (Acab) in liver: not significantly different
  abundance of fatty acid synthase (Fasn) in liver: decreased in the WD-100 group compared to the WD group
  abundance of mitochondrial β-oxidation enzymes Acadl, Acadm, Acads and Hadh in liver: significantly decreased in the WD-100 group compared to WD
  abundance of peroxisomal β-oxidation enzymes Acox1, Acaala and Acaalb in liver: A similar trend was observed
[1]; WD-100 group vs WD, sodium salt
  abundance of CD36 in liver: did not affect CD36 abundance; also recorded: decreased, but not significantly
[2]
  production of TNF-α, IL-1β, and MCP-1: dose-dependently attenuated the production of TNF-α, IL-1β, and MCP-1
[3]; WD-50 group vs WD
  liver protein abundance profile (PLS-DA): not significantly different from the WD group
[3]; WD-100 group vs WD, p<0.001
  liver protein abundance profile (PLS-DA): significantly different from the WD group
